# Patent US12109253B2, “Use of IGFBP7 for treating malaria” (AGENCY FOR SCIENCE, TECHNOLOGY AND RESEARCH, priority 2019, dated 2024)
# Several values for one entry are separate records, joined by “and”; a condition that tells them apart may be missing. Equal values may be shown once.
# Legend:
# P. vivax = test: Rosetting assay (percentage of IRBC that form rosettes), P. vivax; type: cell-based, Plasmodium vivax
# Experimental: Rosetting assay was conducted when 70% of the parasite population reached late stages (late trophozoites and schizonts) unless stated otherwise. The parasite culture suspension was stained subvitally with Giemsa (5% stain working concentration) for 20 minutes. Subsequently, 7.6 μl stained suspension was pipetted onto a clean glass slide, immediately covered with a 22×32 mm glass cover slip. The wet mount was examined with light microscope using 1000× magnification. Rosetting rate (percentage of rosetting IRBCs) was defined as the percentage of IRBC (over 200 recruited IRBC) that form rosettes. Experiments were conducted in blinded manner.
# Following data review, coupled with critical information (i.e. the protein's subcellular location and cellular functions) from UNIPROT, candidates were shortlisted for further validation. The parasite culture suspensions were incubated with CSMT and antibodies against the shortlisted proteins (see Table 6, items 35, 37, 39-41) and tested in rosetting assay at a final concentration of 25 μg/ml.
# The parasite culture suspension was divided into three groups, one served as control, the second group was added with recombinant human IGFBP7 (final concentration 100 ng/ml), and the third group was mixed with CSMT (CSMT:parasite culture=1:3). After one hour of incubation under in vitro cultivation conditions, rosetting assay was conducted. Separately, a portion of the IGFBP7 suspension was heat-denatured at 95° C. for one hour, prior to use in rosetting assay.
# Parasite cultures were incubated with IGFBP7 (working concentrations 0-25,000 ng/ml) prior to rosetting assay. Time course experiments were performed with laboratory-adapted P. falciparum lines (3D7, MKK183, FVT402, FVT201, WPP3065) incubated with IGFBP7 (100 ng/ml). Rosetting assay was conducted after five minutes, using 7 μl of the suspension. The remaining suspension was kept back into the incubator. Rosetting assay was repeated at five minute-intervals until one hour-post-IGFBP7 exposure. Reversibility of IGFBP7-mediated rosette-stimulation was also tested. Parasite lines (3D7, MKK183, FVT402, FVT201, WPP3065) were incubated with IGFBP7 (100 ng/ml) and rosetting assay was conducted with 7 μl of the suspension. The remaining suspension was centrifuged at 1500 g for five minutes. Supernatant was removed, and the pellet was washed thrice with culture medium, followed by re-suspension with culture medium. Five minutes later, 7 μl of the suspension was taken for rosetting assay, subsequently repeated at five minute-intervals up to one-hour post-IGFBP7 removal.
# Magnetic activated cell sorter (MACS)-sorted late stage-IRBC (purity 95%) were trypsinized at different working concentrations. The first group was mixed with enzyme trypsin (final trypsin concentration of 10 μg/ml), and the second was mixed with enzyme trypsin (final trypsin concentration of 1 mg/ml). The third served as untreated control. The cells were incubated at 37° C. for 30 minutes. After that, the cells were washed with serum-enriched medium for three times. Each group was incubated with or without IGFBP7 (100 ng/ml) prior to rosetting assay. P. falciparum line CS2 deficient of SBP1 [(SBP1-KO-CS2), which lacks P. falciparum erythrocyte membrane protein 1 (PFEMP1) on its IRBC surface] and its wild type (CS2-WT) counterpart were cultured as described. Their rosetting rates post-incubation with IGFBP7 at different concentrations were determined. P. falciparum clones NF54 VAR2CSA_WT and NF54_T934D (cannot express PfEMP1 variant VAR2CSA on IRBC surface^32) were cultivated. Experiments were conducted when parasite population reached late stages. For each parasite line, two conditions were applied; one was incubated with IGFBP7 (100 ng/ml) whereas the other one acted as IGFBP7-free control. Rosetting assay was conducted afterwards. Five replicates were conducted for each experiment setting. […]
# peripheral monocytes = test: IRBC phagocytosis by CD14+ peripheral monocytes; type: cell-based, human; settings: IGFBP7 100 ng/ml, Pf line NHP1106, biological replicates
# hCMEC/D3 = test: IRBC-endothelial cytoadhesion to hCMEC/D3; type: cell-based, Plasmodium falciparum
# From the text: Following this we investigated the relationship between IGFBP7, rosetting and IRBC-endothelial cytoadhesion. As expected, IGFBP7 stimulated rosetting of the recruited laboratory-adapted P. falciparum. […] How about the already endothelial-cytoadhered IRBCs? […] Clearly, presence of IGFBP7 interfered with the dynamics between IRBC-endothelial cytoadhesion and IRBC-rosetting.
# Is the IGFBP7-induced reversal of IRBC-endothelial cytoadhesion mediated via the IGFBP7-stimulated rosetting? Or are the two events occurring concomitantly? […] The two events are likely to happen in parallel instead of being a cause-effect relationship.
# [1] = tested on: Plasmodium berghei ANKA line expressing luciferase (PbAluc); test: Experimental cerebral malaria (ECM) in PbAluc infected C57BL/6 mice; type: in vivo
# Experimental: Here, we set out to determine the effect of IGFBP7 administration on mice. In particular, we set out to determine the dose and protection from ECM death of mouse IGFBP7 administered i.v. on days 5-12 post-infection (dpi) to Plasmodium berghei ANKA line expressing luciferase (PbAluc) infected C57BL/6 mice.
# IGFBP7 was suspended in 1×PBS (concentrations: 0, 50, 100, 200, 1000, and 5000 ng/ml). A separate aliquot of IGFBP7 (5000 ng/ml) was prepared and boiled for one hour, to be used as control.
# For each protein concentration group, I.V. administration of 100 μl per mouse was done.
# Mice were infected with PbAluc. Prior to infection, an aliquot of serum was collected for each mouse using blood collected through orbital bleeding. Sera were also collected on days 3 and 6 post-infection (dpi) for further testing in future.
# I.V. administration was done on daily basis from 5-12 dpi. The n number for each concentration group was 8 except group 5 ng/mouse (n=7) and group 500 ng/mouse (n=5).
# The mice were monitored daily, and their signs and symptoms were observed. Dead mice were removed.
# Survival of mice within the experimental cerebral malaria (ECM) period (6-12 dpi) across the experimental groups was recorded.
# Mice that survived the ECM period were monitored until their death by malaria-induced anemia.
substance,measurement,setting,value
insulin-like growth factor binding protein 7 [IGFBP7],rosette-stimulating capacity after heat denaturation,"P. vivax; 95° C. for one hour, Pv n=4",abolished
same,effect on rosetting of trypsin-treated IRBC,"P. vivax; IRBC treated with 10 μg/ml or 1 mg/ml trypsin, IGFBP7 100 ng/ml, Pv n=4",did not significantly alter rosetting
same,concentration at which significant rosette-stimulation noted,"P. vivax; Pv n=7, one hour incubation, 0-25,000 ng/ml tested",50 ng/mL
same,effect on rosetting with URBC of different ABO blood groups,"P. vivax; URBC groups A, B, O, AB, rhIGFBP7 100 ng/ml, Pv n=7",significantly increase rosetting rates regardless of the blood groups
same,rosetting with heparinase-treated URBC,"P. vivax; URBC treated with heparinase I or III 25 μg/ml, purified Pv IRBC",did not induce rosetting
same,concentration at which rosette stimulation reaches a plateau,"P. vivax; leukocyte-free parasite culture, P. vivax isolates",100 ng/mL
same,phagocytosis rates,peripheral monocytes,6.0% and 10.0% and 9.0% and 11.0% and 4.0%
same,cytoadhesion of already hCMEC/D3-cytoadhering IRBCs,hCMEC/D3; incubation of cytoadhering IRBCs with IGFBP7,reduced IRBC-endothelial cytoadhesion
same,IRBC-endothelial cytoadhesion of IGFBP7-primed packed cells,"hCMEC/D3; rosette-stimulated cells then co-incubated with hCMEC/D3, vs non-IGFBP7-primed",lower rate of IRBC-endothelial cytoadhesion
same,ECM death compared with control group,"[1]; 10, 20, 100, and 500 ng/mouse i.v. daily 5-12 dpi, vs denatured IGFBP7",significantly lower ECM death
same,survival rate compared with control,"[1]; 10, 20, 100 and 500 ng/mouse i.v. daily 5-12 dpi, vs denatured 500 ng/mouse IGFBP7, till 25 dpi",significant difference in survival rate
same,signs of cerebral malaria,"[1]; groups 10, 20, 100 and 500 ng/mouse, after 8 dpi",reversal of CM signs
same,dose adequate to confer protection from cerebral malaria,[1]; i.v. daily 5-12 dpi,10 ng/mouse
